Assay: Solubility test of PAPAP derivatives in cyclohexanone with thermal stirring
Format: physicochemical
Details: 10 mg compound in 1 mL cyclohexanone, thermal stirring at about 100° C.
Procedure: Solubility tests were performed on PAPAP-1 and PAPAP-0 obtained from the Synthetic Example using cyclohexanone as a solvent. 10 mg of each of PAPAP-1 and PAPAP-0 was measured, 1 mL of cyclohexanone was added thereto, and thermal stirring was performed at a temperature of about 100° C.
The solubilities of PAPAP-12 and PAPAP-1 were tested using cyclohexanone as a solvent. 10 mg of each of PAPAP-12 and PAPAP-1 was measured, 1 mL of cyclohexanone was added thereto, and thermal stirring was performed at a temperature of about 100° C.

Structure (SMILES)	solubility in cyclohexanone
COc1ccc(-c2c3ccccc3c(-c3ccc(-c4c5ccccc5c(-c5ccc(C#N)cc5)c5ccccc45)cc3)c3ccccc23)cc1 [PAPAP-0, reference compound]	insoluble
c1ccc(-c2ccccc2-c2c3ccccc3c(-c3ccc(-c4c5ccccc5c(-c5ccc(N(c6ccccc6)c6ccccc6)cc5)c5ccccc45)cc3)c3ccccc23)cc1 [PAPAP-1]	soluble
c1ccc(-c2ccccc2-c2c3ccccc3c(-c3ccc(-c4c5ccccc5c(-c5cccc(N(c6ccccc6)c6ccccc6)c5)c5ccccc45)cc3)c3ccccc23)cc1 [PAPAP-12]	soluble
